Laboratory results: article PMC7429318 (Journal of controlled release : official journal of the …, 2020)

System: MDCKII cells
Assay: Transwell permeability assay across MDCKII monolayer
Assay type: in vitro ADME, canine
Settings: transwell (2D), LY 100 μM

Lucifer yellow CH-lithium salt [LY] was tested, and the “permeability in transwell assay (2D)” value was “about 3 × 10^−7 cm s^−1”.
